Legend:
HTCFs [1] = assay: Collagen Contraction Assay V (AHGF induced, APHS and gentamicin vs mitomycin C); type: cell-based, human; conditions: APHS 12 and 24 μg/ml
Experimental: HTCFs were seeded at a density of 2.5×10^5 cells/mL within an extracellular matrix (ECM) mixture containing 400 ul of rat tail-derived type I collagen (1.8 mg/ml), 80 ul of neutralizing solution (equal parts Waymouth's media (Gibco, CAT. NO: 11220035) and 0.275M NaOH) and 20 ul of HTCF conditioned media (concentrated to 25× to obtain a 1× final concentration within the 500 ul matrix solution). The cell-collagen solution was pipetted gently to ensure homogenous distribution of HTCFs while avoiding the production of air bubbles, then 500 ul were pipetted into each well of a 24-well tray. Collagen constructs were allowed to polymerize at 37 C for 45 minutes before adding low serum culture media containing DMEM, 2% Fetal Bovine Serum (FBS), 1% penicillin/streptomycin (P/S).
Tension was allowed to build up within the tethered matrix at 37 C and 5% CO2 for 72 hours before a sterile spatula was used to detach each collagen construct from the edges of the culture well. Plates were then immediately scanned on a flat bed laser scanner to record baseline area, and then measured periodically for a duration of 4 days. The surface area of each collagen construct was measured using ImageJ (NIH) and standardized against the baseline surface area measurement to express changes in area as a percentage of original surface area. […]

[2] = system: human Tenon's capsule fibroblasts (HTCFs); assay: Collagen Contraction Assay I (delayed release fibroblast populated collagen lattice); type: cell-based
Experimental: The delayed release fibroblast populated collagen lattice model was used to assess inhibition of gel contraction [58] by ASA and gentamicin. […] Cell free collagen lattices were prepared identically, however to isolate the effects of HTCFs alone on collagen, constructs without HTCFs were cast as a negative control. The cell-collagen solution was pipetted gently to ensure homogenous distribution of HTCFs while avoiding the production of air bubbles, then 500 ul were pipetted into each well of a 24-well tray. Collagen constructs were allowed to polymerize at 37 C for 45 minutes before adding low serum culture media containing DMEM, 2% Fetal Bovine Serum (FBS), 1% penicillin/streptomycin (P/S).
Tension was allowed to build up within the tethered matrix at 37 C and 5% CO2 for 72 hours before a sterile spatula was used to detach each collagen construct from the edges of the culture well. Plates were then immediately scanned on a flat bed laser scanner and then once per hour for the first 12 hours, then daily for a total of 4 days. The surface area of each collagen construct was measured using ImageJ (NIH) and standardized against the baseline surface area measurement to express changes in area as a percentage of original surface area.
Vehicle control treatment solution comprised of DMEM with 2% FBS and 1% penicillin/streptomycin. The gentamicin treatment solution contained DMEM with 2% FBS, 1% penicillin/streptomycin and 1000 μg/ml gentamicin (w/vol) (Sigma-Aldrich, CAT. NO: G1397). The ASA treatment solution contained DMEM with 2% FBS, 1% penicillin/streptomycin and 2000 μg/ml ASA (w/vol) (Sigma-Aldrich, CAT. NO: A5376). The gentamicin-ASA combination treatment solution (Gent+ASA) contained DMEM with 2% FBS, 1% penicillin/streptomycin, 1000 μg/ml gentamicin (w/vol.) and 2000 μg/ml ASA (w/vo).
Culture media was removed from collagen constructs twice daily and replaced with one of the four treatment solutions for a duration of 15 minutes. […]

HTCFs [3] = assay: Lipid Mediator Secretion Assay I (ASA with and without melittin, LC-MS/MS); type: cell-based, human; conditions: ASA 200 μg/ml
Experimental: The aim of this experiment was to assess the relative secretion of COX2 vs. acetylated-COX2 products from HTCFs after an inflammatory stimulus followed by exposure to ASA with and without an extremely potent PLA2 agonist—melittin. To this end, multiple primary HTCF cell lines were cultured in DMEM w/10% FBS in 6-well culture plates, incubated at 37 C and 5% CO2, until 90% confluent. The culture media was removed, wells washed with PBS, and then fresh DMEM w/0% FBS was added. After 24 hrs of serum starvation, fresh DMEM w/0% FBS was added, this time containing a physiologically relevant inflammation/wound healing induction mixture (1 ng/ml each of: IL-1b, TNFa, IFNγ, TGFb). After 12 hrs incubation, the induction media was removed, the wells were washed with PBS and fresh DMEM w/0% FBS was added containing one of three experimental treatments for an incubation period of 24 hrs: 1) vehicle control (DMEM w/0% FBS), and 2) ASA 200 (DMEM w/0% FBS and 200 μg/ml ASA), and 3) ASA/Mel. (DMEM w/0% FBS, 200 μg/ml ASA and 10 μg/ml of melittin, a potent PLA2 agonist). At 6, 12 and 24 hrs after addition of the experimental treatments, 250 ul of supernatant was removed from each well, replaced with 250 ul of fresh DMEM w/0% FBS, and stored at −80° C. for subsequent LC-MS/MS analysis. After 24 hrs, the wells were washed with ice cold PBS three times and total cellular protein from the HTCF monolayer was collected for quantification and subsequent western blot analyses. The absolute quantity of protein within each culture well's HTCF monolayer was used as a means to standardize the relative secretion of lipid mediators by HTCFs into the culture well's supernatant.
Relative quantification of secreted lipid mediators was achieved using liquid chromatography tandem mass spectrometry combined with the addition of a known quantity of deuterated versions of the lipid mediators to each sample as internal standards (Item Numbers: #10007737, #320110, #314010, #11182, #315210, #319030, #390030, #10006410, #10006199, #334230, and #10008040, Cayman Chemical). This is a well-established method to determine the relative activity of cyclooxygenase, acetyl-COX2 and lipoxygenase biosynthetic pathways. In brief, the ratios of the integrated areas of the chromatographic peaks corresponding to each analyte and the integrated areas of the peaks corresponding to each analyte's internal standard (with known absolute quantity) are used to determine the relative quantity of each analyte in a given sample. […] The chromatographic profile of the ion count for each m/z transition was monitored, and the area under the peaks (ion intensity vs elution time) was integrated using commercial software (MultiQuant, Sciex).

[4] = alone or with melittin 10 μg/ml, vs vehicle control

Structure (SMILES)	AHGF-induced HTCF-mediated collagen contraction (HTCFs [1])	contraction evident by the end of the four-day period ([2]; ASA 2000 μg/ml alone)	HTCF mediated collagen contraction ([2]; gentamicin 1000 μg/ml and/or ASA 2000 μg/ml, 15 minutes twice daily, four day assay, vs vehicle control)	relative amount of COX2 products relative to inf. cytokines control (HTCFs [3])	relative secretion of precursor PUFAs (AA, DHA and EPA) (HTCFs [3]; alone or with melittin 10 μg/ml, supernatant at 6, 12, 24 hrs)	relative secretion of acetylated-COX2 products (HTCFs [3]; [4])	secretion of COX2 products (HTCFs [3]; [4])
CCCCC#CCSc1ccccc1OC(C)=O [APHS, o-(acetoxyphenyl)hept-2-ynyl sulfide]	significantly inhibited AHGF-induced HTCF-mediated collagen contraction						
CC(=O)Oc1ccccc1C(=O)O [ASA, acetylsalicylic acid]		approximately 20%	significantly inhibited contraction compared to vehicle control at all time points after the first hour of the experiment	decrease the relative amount of COX2 products relative to inf. cytokines control	no significant increase in relative secretion of precursor PUFAs	no significant increase in the relative secretion of acetylated-COX2 products	decrease the secretion of COX2 products relative to vehicle control; however this effect was not statistically significant
